Source: article PMC8162404, “Proteomimetic surface fragments distinguish targets by function” (Chemical Science, 2020)
pKd: −log10 of the molar value.

Columns and labels:
Gal-1 [1] = molecular target: T1, Gal-1 (Homo sapiens, UniProt P09382); experiment: Pull-down assay with immobilized protein and LSM libraries; type: binding; settings: H14 library; 1:1 binding assumed; read-out: Surface mapping KD (apparent)
T1 construct: made in house; host or cells: E. coli BL21(DE3)
How it was run: (§1)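 Buffers were HEPES pH 7.4 with 150 mM NaCl, plus 1 mM TCEP and 1 mM CaCl2 (50 mM HEPES) for S100A4 and S100B, 1 mM TCEP for Gal-1, and no additive for RecQ-WH. Immobilized protein at 64 µM was equilibrated 30 min with the LSM sublibrary, and unbound probes were measured by LC-MS.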

CaM [2] = molecular target: T2, CaM (Bos taurus, UniProt P62157); experiment: Competition pull-down with native ligand TRPV1-Ct15; type: binding, bovine; settings: H14 library; competitor peptide 200 µM; read-out: Surface mapping KD (apparent), competition
T2 construct: made in house; host or cells: E. coli BL21 (DE3)

CaM [3] = molecular target: T2, CaM; experiment: Pull-down assay with immobilized protein and LSM libraries; type: binding, bovine; settings: H14 library; 1:2 stoichiometry assumed; read-out: Surface mapping KD (apparent)
How it was run: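 CaM buffer was 20 mM HEPES pH 7.4, 150 mM NaCl, 5 mM CaCl2. LSM sublibrary members ([…]) incubated 30 min, RT, with equimolar His-tagged protein on Co-NTA resin. HPLC-MS measured unbound probes; bound fraction relative to resin-only background gave dissociation constants.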

S100B = molecular target: T3, S100B (Homo sapiens, UniProt P04271); experiment: as above; type: binding; settings: H14 library; 1:1 binding assumed; read-out: Surface mapping KD (apparent)
T3 construct: made in house; host or cells: Escherichia coli BL21(DE3)
T3 sequence (P04271 1-92): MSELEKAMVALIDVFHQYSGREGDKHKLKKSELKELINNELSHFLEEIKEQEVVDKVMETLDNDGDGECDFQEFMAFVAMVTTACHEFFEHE
How it was run: as §1

Gal-1 [4] = molecular target: T1, Gal-1; experiment: Competition pull-down with lactose; type: binding; settings: H14 library; lactose 10 mM; read-out: Surface mapping KD (apparent), competition
Description: Interactions between the H14 helical LSMs and the targets were abundant, but safe recognition of the native PPI interfaces on the targets is a criterion of druggability. To gain insight into the ability of the LSMs to detect orthosteric spots, we carried out pull-down assays in the presence of the native ligands (Table 2) of the targets (Fig. 5). For highlighting the effect of the competitor on the binding fingerprints, KD ratios and the LSM replacement percentages were calculated and are represented as heat maps (see ESI, Fig. S7 ^†). […] This could be explained by the glycan selective native recognition domain of the protein. We note that the replacement pattern for a single probe can, in theory, be complex. […] Moreover, a single probe can bind to both orthosteric and non-orthosteric spots, which limits overall displacement levels. To avoid overlooking interesting orthosteric weak binders, direct replacement levels were assessed (see ESI, Fig. S7 ^†).
Pull-down assay and data analysis
Pull-down assay. LSM sublibraries were screened separately as previously described.(2) Experiments were performed in the following buffers: (i) 20 mM pH 7.4 HEPES, 150 mM NaCl, 5 mM CaCl2 for CaM; (ii) 50 mM pH 7.4 HEPES, 150 mM NaCl, 1 mM TCEP, 1 mM CaCl2 for S100 proteins; (iii) 20 mM pH 7.4 HEPES, 150 mM NaCl, 1 mM TCEP for Gal-1 and (iv) 20 mM pH 7.4 HEPES, 150 mM NaCl for RecQ-WH. Assays were performed in paper filter spin cups (Thermo Scientific) with sample volumes of 100 µl. Hexahistidine-tagged proteins were immobilized on previously washed Co-NTA resin (TALON, Takara Bio USA, Inc., Mountain View, CA) in 64 µM final concentration. LSM sublibrary was added, in which each of the 64 library members were used at a concentration of 1 µM. Samples were incubated at room temperature for 30 min with shaking at 100 rpm. Then, samples were centrifuged at 1000 rpm for 2 min and washed with 100 µl pull-down buffer to remove unbound compounds.
The control experiments were performed using the same compounds and the resin but without the immobilized protein. In case of competitive assays, competitor peptides were added to LSM sublibrary samples in 200 µM final concentration. In the case of Gal-1, lactose (competitor) was used in a concentration of 10 mM. Experiments were performed at least twice. Mean […]
LC-MS methods and parameters. HPLC/ESI-MS analysis was used to characterize the samples from the pull-down assay. LC-MS analysis was performed with a Thermo Scientific Dionex UltiMate 3000 HPLC system interfaced to an LTQ ion trap mass spectrometer (Thermo Electron Corp., San Jose, CA, USA). Samples were injected onto an Aeris Widepore XB-C18 (250 x 4.6 mm) analytical HPLC column using gradient elution 5-80 % solution B during 25 minutes. For pull-down samples, eluent composition was 0.1% acetic acid in distilled water (Solution A) and 0.1% acetic acid in acetonitrile (solution B). Mass spectra were acquired in full scan mode from 200 to 2000 m/z range. For overlapping peaks, selective reaction monitoring (SRM) was […]
MS data analysis. Thermo Xcalibur 2.2 software was used for peak identification and integration. The majority of the foldameric fragments could be resolved independently via HPLC-MS/MS measurements based on molecular weight, MS fragmentation pattern and retention time. Peaks of some foldamers with β3-hIle or β3-hLeu in position R2 could not be resolved, these were integrated and averaged. In the processing method, each sample component was associated to a chromatographic peak based on previously identified mass (m/z) and retention time (ref (2) and Table S7-10). Using ICIS peak detection algorithm, the general detection and integration criteria were: smoothing points: 5, baseline window: 80, area noise factor: 5, peak noise factor: 10. Using these processing setups, all raw data files were reprocessed together and analyzed. Errors in peak identification during the automatic processing were corrected manually.
Calculation of the discussed parameters […]

S100A4 = molecular target: T4, S100A4 (Homo sapiens, UniProt P26447); experiment: Pull-down assay with immobilized protein and LSM libraries; type: binding; settings: H14 library; 1:1 binding assumed; read-out: Surface mapping KD (apparent)
T4 construct: made in house; host or cells: Escherichia coli BL21(DE3)
T4 sequence (P26447 whole entry): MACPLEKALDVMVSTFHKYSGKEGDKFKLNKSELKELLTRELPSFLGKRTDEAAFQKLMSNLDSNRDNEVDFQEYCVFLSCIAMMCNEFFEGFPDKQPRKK
How it was run: as §1

T1 sequence (P09382 whole entry): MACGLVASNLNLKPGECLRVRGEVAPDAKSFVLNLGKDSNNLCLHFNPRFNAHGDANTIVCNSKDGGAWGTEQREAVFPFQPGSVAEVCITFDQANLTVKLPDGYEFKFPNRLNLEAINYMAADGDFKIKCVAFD

| Structure (SMILES) | pKd (Gal-1 [1]) | pKd (CaM [2]) | pKd (CaM [3]) | pKd (S100B) | pKd (Gal-1 [4]) | pKd (S100A4) |
| --- | --- | --- | --- | --- | --- | --- |
| C[C@@H](O)[C@@H](CC(=O)N[C@H]1CCCC[C@@H]1C(N)=O)NC(=O)[C@H]1CCCC[C@@H]1NC(=O)[C@H]1CCCC[C@@H]1NC(=O)C[C@H](CCC(N)=O)NC(=O)[C@H]1CCCC[C@@H]1N [H14 QT] | 3.49 | 3.58 | 3.68 |  |  |  |
| C[C@@H](CC(=O)N[C@H]1CCCC[C@@H]1C(N)=O)NC(=O)[C@H]1CCCC[C@@H]1NC(=O)[C@H]1CCCC[C@@H]1NC(=O)C[C@H](CCCCN)NC(=O)[C@H]1CCCC[C@@H]1N [H14 KA] |  |  | 3.50 | 3.50 | 3.33 |  |
| NC(=O)C[C@@H](CC(=O)N[C@H]1CCCC[C@@H]1C(N)=O)NC(=O)[C@H]1CCCC[C@@H]1NC(=O)[C@H]1CCCC[C@@H]1NC(=O)C[C@H](Cc1c[nH]c2ccccc12)NC(=O)[C@H]1CCCC[C@@H]1N [H14 WN] |  | 3.53 | 4.85 | 3.77 |  | 3.65 |
| NC(=O)[C@H]1CCCC[C@@H]1NC(=O)C[C@H](CC(=O)O)NC(=O)[C@H]1CCCC[C@@H]1NC(=O)[C@H]1CCCC[C@@H]1NC(=O)C[C@H](Cc1ccc(O)cc1)NC(=O)[C@H]1CCCC[C@@H]1N [H14 YD] | 3.92 |  |  |  | 3.75 |  |
| CSCC[C@@H](CC(=O)N[C@H]1CCCC[C@@H]1C(=O)N[C@H]1CCCC[C@@H]1C(=O)N[C@@H](CC(=O)O)CC(=O)N[C@H]1CCCC[C@@H]1C(N)=O)NC(=O)[C@H]1CCCC[C@@H]1N [H14 MD] |  | 3.56 |  |  |  | 3.37 |
| NC(=O)[C@H]1CCCC[C@@H]1NC(=O)C[C@H](CC(=O)O)NC(=O)[C@H]1CCCC[C@@H]1NC(=O)[C@H]1CCCC[C@@H]1NC(=O)C[C@H](CC(=O)O)NC(=O)[C@H]1CCCC[C@@H]1N [H14 DD] |  | 3.35 |  |  |  |  |
| NC(=O)CC[C@@H](CC(=O)N[C@H]1CCCC[C@@H]1C(N)=O)NC(=O)[C@H]1CCCC[C@@H]1NC(=O)[C@H]1CCCC[C@@H]1NC(=O)C[C@H](CC(=O)O)NC(=O)[C@H]1CCCC[C@@H]1N [H14 DQ] |  | 3.67 |  |  |  |  |
| C[C@@H](O)[C@@H](CC(=O)N[C@H]1CCCC[C@@H]1C(=O)N[C@H]1CCCC[C@@H]1C(=O)N[C@@H](CCC(N)=O)CC(=O)N[C@H]1CCCC[C@@H]1C(N)=O)NC(=O)[C@H]1CCCC[C@@H]1N [H14 TQ] | 3.43 | 3.57 | 3.81 |  |  |  |
| CSCC[C@@H](CC(=O)N[C@H]1CCCC[C@@H]1C(=O)N[C@H]1CCCC[C@@H]1C(=O)N[C@@H](CCCCN)CC(=O)N[C@H]1CCCC[C@@H]1C(N)=O)NC(=O)[C@H]1CCCC[C@@H]1N [H14 MK] | 3.88 |  | 4.48 | 3.90 | 3.83 | 3.47 |
| NC(=O)[C@H]1CCCC[C@@H]1NC(=O)C[C@H](CO)NC(=O)[C@H]1CCCC[C@@H]1NC(=O)[C@H]1CCCC[C@@H]1NC(=O)C[C@H](CO)NC(=O)[C@H]1CCCC[C@@H]1N [H14 SS] | 3.36 | 3.63 | 3.76 |  |  |  |
| C[C@@H](CC(=O)N[C@H]1CCCC[C@@H]1C(N)=O)NC(=O)[C@H]1CCCC[C@@H]1NC(=O)[C@H]1CCCC[C@@H]1NC(=O)C[C@H](CC(N)=O)NC(=O)[C@H]1CCCC[C@@H]1N [H14 NA] |  | 3.40 | 3.73 |  |  |  |
| NCCCC[C@@H](CC(=O)N[C@H]1CCCC[C@@H]1C(=O)N[C@H]1CCCC[C@@H]1C(=O)N[C@@H](CC(N)=O)CC(=O)N[C@H]1CCCC[C@@H]1C(N)=O)NC(=O)[C@H]1CCCC[C@@H]1N [H14 KN] |  |  | 3.34 | 3.71 | 3.56 |  |
| N=C(N)NCCC[C@@H](CC(=O)N[C@H]1CCCC[C@@H]1C(=O)N[C@H]1CCCC[C@@H]1C(=O)N[C@@H](CCC(N)=O)CC(=O)N[C@H]1CCCC[C@@H]1C(N)=O)NC(=O)[C@H]1CCCC[C@@H]1N [H14 RQ] |  |  | 3.49 | 3.94 | 3.38 |  |
| NC(=O)CC[C@@H](CC(=O)N[C@H]1CCCC[C@@H]1C(=O)N[C@H]1CCCC[C@@H]1C(=O)N[C@@H](CC(N)=O)CC(=O)N[C@H]1CCCC[C@@H]1C(N)=O)NC(=O)[C@H]1CCCC[C@@H]1N [H14 QN] | 3.59 | 3.52 | 3.75 |  |  |  |
| NC(=O)C[C@@H](CC(=O)N[C@H]1CCCC[C@@H]1C(=O)N[C@H]1CCCC[C@@H]1C(=O)N[C@@H](CCC(=O)O)CC(=O)N[C@H]1CCCC[C@@H]1C(N)=O)NC(=O)[C@H]1CCCC[C@@H]1N [H14 NE] | 3.42 | 3.38 | 3.60 |  |  |  |
| C[C@@H](CC(=O)N[C@H]1CCCC[C@@H]1C(=O)N[C@H]1CCCC[C@@H]1C(=O)N[C@H](CC(=O)N[C@H]1CCCC[C@@H]1C(N)=O)[C@@H](C)O)NC(=O)[C@H]1CCCC[C@@H]1N [H14 AT] | 3.35 |  |  |  | 3.38 | 3.45 |
| NCCCC[C@@H](CC(=O)N[C@H]1CCCC[C@@H]1C(N)=O)NC(=O)[C@H]1CCCC[C@@H]1NC(=O)[C@H]1CCCC[C@@H]1NC(=O)C[C@H](CCCCN)NC(=O)[C@H]1CCCC[C@@H]1N [H14 KK] |  |  | 4.31 | 4.28 | 3.53 |  |
| NC(=O)CC[C@@H](CC(=O)N[C@H]1CCCC[C@@H]1C(=O)N[C@H]1CCCC[C@@H]1C(=O)N[C@@H](CC(=O)O)CC(=O)N[C@H]1CCCC[C@@H]1C(N)=O)NC(=O)[C@H]1CCCC[C@@H]1N [H14 QD] | 3.42 | 3.46 | 3.64 |  |  |  |
| C[C@@H](O)[C@@H](CC(=O)N[C@H]1CCCC[C@@H]1C(N)=O)NC(=O)[C@H]1CCCC[C@@H]1NC(=O)[C@H]1CCCC[C@@H]1NC(=O)C[C@H](CCCCN)NC(=O)[C@H]1CCCC[C@@H]1N [H14 KT] |  |  | 3.62 | 3.71 | 3.43 |  |
| C[C@@H](O)[C@@H](CC(=O)N[C@H]1CCCC[C@@H]1C(=O)N[C@H]1CCCC[C@@H]1C(=O)N[C@@H](CCCCN)CC(=O)N[C@H]1CCCC[C@@H]1C(N)=O)NC(=O)[C@H]1CCCC[C@@H]1N [H14 TK] |  | 3.31 | 4.06 | 3.76 |  |  |
